Values joined by “and” are separate entries in the source; they are usually repeats but may differ in a detail not shown here. Equal values may be shown once. “Also recorded” adds a separate entry of the source. Read-outs that look alike come from different tables or passages of the source.
Assays:
LPLA2 [1] = molecular target: T1, LPLA2 (Canis lupus familiaris, UniProt Q6XPZ3); assay: LPLA2 (transacylase/phospholipase A2) activity assay in MDCK cell homogenates with cationic amphiphilic drugs; type: biochemical; settings: FIG. 1A; for inhibition of LPLA2 transacylase and phospholipase A2 activity (in words): enzyme assay for LPLA2 activity
T1 construct: endogenous in cells; host or cells: MDCK cell homogenate
T1 sequence (Q6XPZ3 32-408): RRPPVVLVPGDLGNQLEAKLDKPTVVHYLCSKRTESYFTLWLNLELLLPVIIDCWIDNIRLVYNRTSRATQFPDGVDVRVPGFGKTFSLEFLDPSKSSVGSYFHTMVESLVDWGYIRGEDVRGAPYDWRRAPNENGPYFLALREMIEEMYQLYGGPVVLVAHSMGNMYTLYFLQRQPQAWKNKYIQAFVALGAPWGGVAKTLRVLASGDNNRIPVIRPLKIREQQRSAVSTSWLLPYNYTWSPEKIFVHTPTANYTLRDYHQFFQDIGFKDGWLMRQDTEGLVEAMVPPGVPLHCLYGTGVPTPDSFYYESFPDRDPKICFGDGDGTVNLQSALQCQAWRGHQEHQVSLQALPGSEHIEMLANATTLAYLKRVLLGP
Method: (§1) Phospholipids, DOPC and PE, and N-acetylsphingosine (NAS) were used in the assay system as a donor and an acceptor, respectively, of an acyl group. The transacylase activity was determined by analysis of 1-O-acyl-N-acetylsphingosine formation rate. The reaction mixture consisted of 45 mM sodium citrate (pH 4.5), 10 μg/ml bovine serum albumin, 40 μM NAS incorporated into phospholipid liposomes (DOPC/PE/dicetyl phosphate/NAS (5:2:1:2 in molar ratio)) and soluble fraction (0.7-10 μg) in a total volume of 500 μl. The reaction was initiated by adding the soluble fraction, kept for 5-60 min at 37° C. and terminated by adding 3 ml of chloroform/methanol (2:1) plus 0.3 ml of 0.9% (w/v) NaCl. The mixture was centrifuged for 5 min at room temperature. The resultant lower layer was transferred into another glass tube and dried down under a stream of nitrogen gas. The dried lipid dissolved in 40 μl of chloroform/methanol (2:1) was applied on an HPTLC plate and developed in a solvent system consisting of chloroform/acetic acid (9:1). The plated was dried down and soaked in 8% (w/v) CuSO4, 5H2O, 6.8% (v/v) H3PO4, 32% (v/v) methanol. The uniformly wet plate was briefly dried down by a hair dryer and charred for 15 min in a 150° C. oven. The plate was scanned and the amount of the reaction products was estimated by NIH-image 1.62.
Res., 35:1232-1240, 1994]. PDMP and its related homologs contain a hydrophilic domain with a substituted nitrogen and a hydrophobic aromatic group, functional groups that are typical of CADs in general.

[2] = test system: surfactant phospholipid catabolism; settings: rats treated with MJ33 (Fisher et al. 2001); cited from earlier work
[3] = test system: dipalmitoyl-phosphatidylcholine degradation; settings: murine lung, previously demonstrated; cited from earlier work
c-myc-tagged mouse LPLA2 = c-myc-tagged mouse LPLA2 (Mus musculus, UniProt Q8VEB4); settings: soluble fraction of LPLA2 transfected COS 7 cells 2.26 μg protein/ml, citrate buffer pH 4.5, 40 μM NAS
Sequence of c-myc-tagged mouse LPLA2 (Q8VEB4 34-412): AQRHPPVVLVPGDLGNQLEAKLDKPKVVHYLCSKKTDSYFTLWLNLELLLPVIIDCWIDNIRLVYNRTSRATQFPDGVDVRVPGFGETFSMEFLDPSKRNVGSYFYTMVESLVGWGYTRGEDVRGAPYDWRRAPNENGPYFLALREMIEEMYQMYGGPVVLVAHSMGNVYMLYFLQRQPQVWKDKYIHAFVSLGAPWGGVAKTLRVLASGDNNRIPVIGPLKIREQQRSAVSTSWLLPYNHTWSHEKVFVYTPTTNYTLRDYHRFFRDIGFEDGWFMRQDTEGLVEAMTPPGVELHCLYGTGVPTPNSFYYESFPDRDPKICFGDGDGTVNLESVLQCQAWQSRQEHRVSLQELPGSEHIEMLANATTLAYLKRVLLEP
Method: as §1, with “The uniformly wet plate was briefly dried down by a hair dryer and charred for 15 min in a 150° C. oven. The plate was scanned and the amount of the reaction products was estimated by NIH-image 1.62.” left out
(§2) In the studies the effect of MJ33 on LPLA2 transacylation activity in rat alveolar macrophages and c-myc-tagged mouse LPLA2 transfected COS 7 cells was also determined. […] The enzyme activity was determined as described in the Example 1.

LPLA2 [4] = molecular target: LPLA2 (Rattus norvegicus, UniProt Q675A5); settings: rat AM soluble fraction 2.42 μg protein/ml, citrate buffer pH 4.5, 40 μM NAS, different concentrations of MJ33
Sequence of LPLA2 (Rattus norvegicus, UniProt Q675A5) (Q675A5 34-413): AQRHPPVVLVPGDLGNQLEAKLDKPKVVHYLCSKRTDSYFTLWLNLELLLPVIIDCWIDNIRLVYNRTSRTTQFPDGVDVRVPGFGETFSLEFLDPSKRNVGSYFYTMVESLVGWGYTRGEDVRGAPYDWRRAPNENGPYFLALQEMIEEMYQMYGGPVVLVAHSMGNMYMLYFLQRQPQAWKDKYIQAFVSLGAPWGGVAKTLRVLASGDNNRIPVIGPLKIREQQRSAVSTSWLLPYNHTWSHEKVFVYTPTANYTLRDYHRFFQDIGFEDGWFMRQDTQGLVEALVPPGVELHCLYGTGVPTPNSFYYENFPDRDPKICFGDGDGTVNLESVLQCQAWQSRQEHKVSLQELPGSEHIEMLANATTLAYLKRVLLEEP
Method: as §1, with “The uniformly wet plate was briefly dried down by a hair dryer and charred for 15 min in a 150° C. oven. The plate was scanned and the amount of the reaction products was estimated by NIH-image 1.62.” left out
as §2

MDCK cells [5] = settings: MDCK cells treated at the IC50 for transacylase inhibition, 7 days, FIG. 2
CHO cells = CHO cells (Rosenwald and Pagano 1994); cited from earlier work
MDCK cells [6] = test system: MDCK cells
[7] = molecular target: T2, 1-O-acylceramide synthase (LPLA2) (Bos taurus, UniProt Q8WMP9); settings: initial characterization of the enzyme, cited from earlier work
T2 sequence (Q8WMP9 30-407): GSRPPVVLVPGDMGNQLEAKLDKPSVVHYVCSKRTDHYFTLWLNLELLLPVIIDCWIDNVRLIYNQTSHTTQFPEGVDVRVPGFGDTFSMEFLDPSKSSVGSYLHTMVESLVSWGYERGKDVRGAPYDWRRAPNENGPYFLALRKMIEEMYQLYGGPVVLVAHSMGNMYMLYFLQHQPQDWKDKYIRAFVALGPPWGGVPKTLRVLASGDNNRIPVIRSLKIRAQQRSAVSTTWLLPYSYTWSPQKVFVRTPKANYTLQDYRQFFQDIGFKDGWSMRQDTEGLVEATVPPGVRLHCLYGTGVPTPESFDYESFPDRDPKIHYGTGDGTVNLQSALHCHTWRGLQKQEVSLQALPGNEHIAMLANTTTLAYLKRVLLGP

## CCCCc1oc2ccccc2c1C(=O)c1cc(I)c(OCCN(CC)CC)c(I)c1 [Amiodarone, amiodarone]
LPLA2 [1]
  inhibition of LPLA2 transacylase and phospholipase A2 activity (in words): comparable to but greater than PDMP

## CCCCCCCCCCCCCCCCOCC(COCC(F)(F)F)OP(=O)(O)OC (centres unmarked) [MJ33]
[2]
  inhibition of surfactant phospholipid catabolism: 40 to 50%
[3]
  block of dipalmitoyl-phosphatidylcholine degradation: block the majority
c-myc-tagged mouse LPLA2
  inhibition of transacylase activity: comparable response
LPLA2 [4]
  inhibition of transacylase activity: concentration dependent inhibition

## CCCCCCCCCC(=O)N[C@H](CN1CCOCC1)[C@H](O)c1ccccc1 [PDMP, D-threo-1phenyl-2-decanoylamino-3-morphilino-propanol]
MDCK cells [5]
  lysosomal phospholipid inclusions by electron microscopy: obvious lysosomal phospholipid inclusions
CHO cells
  induction of lysosomal lamellar inclusions: induced lysosomal lamellar inclusions
LPLA2 [1]; enzyme assay for LPLA2 (transacylase) activity, read-out: IC50 / half maximal inhibition of LPLA2 activity
  IC50: 30 µM and 50 µM
LPLA2 [1]
  inhibition of LPLA2 transacylase and phospholipase A2 activity (in words): potently inhibited
MDCK cells [6]; MDCK cells incubated for up to 7 days, 15 μM, FIG. 1B
  total phospholipid content: Modest, but significant increases
MDCK cells [6]; MDCK cells, time-dependent changes, FIG. 1C/1D
  content of phosphatidylethanolamine and phosphatidylcholine: increased

## O=C1O/C(=C/Br)CCC1c1cccc2ccccc12 (centres unmarked) [bromoenollactone]
[7]
  inhibition of enzyme activity: did not inhibit
[7]; listed as bromoenol lactone
  inhibition of enzyme activity: insensitive

## CCCCC/C=C\C/C=C\C/C=C\C/C=C\CCCC(=O)C(F)(F)F [nonadecyltetraenyl trifluoromethyl ketone]
[7]
  inhibition of enzyme activity: insensitive; also recorded: did not inhibit

Source: patent US7319015B2, “Methods and compositions for using alveolar macrophage phospholipase A2” (The Regents of The University of Michigan, priority 2004, dated 2008)
